Experimental data reported in patent USRE42013E1, “Macrocyclic modulators of the ghrelin receptor” (Tranzyme Pharma Inc., priority 2003, dated 2010).
Read-outs that look alike come from different tables or passages of the source.

Experiments:
[1] = molecular target: T1, human growth hormone secretagogue receptor (hGHS-R1a) (Homo sapiens, UniProt Q92847); test: Competitive radioligand binding assay (ghrelin receptor), [125I]-ghrelin displacement
T1 construct: purchased PerkinElmer BioSignal #RBHGHSM, lot#1887; host or cells: HEK-293, stably transfected
Procedure: The competitive binding assay at the human growth hormone secretagogue receptor (hGHS-R1a) was carried out analogously to assays described in the literature.
Multiscreen Harvest plates-GF/C (Millipore, #MAHFC1H60) • 4. […] Bottom seal (Millipore, #MATAH0P00) • 7. […] Binding Buffer: 25 mM Hepes (pH 7.4), 1 mM CaCl2, 5 mM MgCl2, 2.5 mM EDTA, 0.4% BSA Assay Volumes
Competition experiments were performed in a 300 μl filtration assay format. • 1. 220 μL of membranes diluted in binding buffer • 2. 40 μL of compound diluted in binding buffer • 3. […] Compound Handling
Compounds were provided frozen on dry ice at a stock concentration of 10 mM diluted in 100% DMSO and stored at −80° C. until the day of testing. On the test day, compounds were allowed to thaw at rt O/N and then diluted in assay buffer according to the desired test concentrations.
Plates were sealed with TopSeal-A, vortexed gently and incubated at rt for 30 min. The reaction was arrested by filtering samples through Multiscreen Harvest plates (pre-soaked in 0.5% polyethyleneimine) using a Tomtec Harvester, washed 9 times with 500 μL of cold 50 mM Tris-HCl (pH 7.4, 4° C.), and then plates were air-dried in a fumehood for 30 min. A bottom seal was applied to the plates prior to the addition of 25 μL of MicroScint-0 to each well. […] Results were expressed as counts per minute (cpm).
Data were analyzed by GraphPad Prism (GraphPad Software, San Diego, Calif.) using a variable slope non-linear regression analysis.
Compound structures for Tables 3A, 3B and 3D are presented with the various groups as defined for the general structure of formula I. For Tables 3B and 3D, in all entries, m, n and p are 0; X, Z1 and Z2 are each NH. For Table 3B, R1 is H for all entries. The tethers (T) are illustrated with the bonding to X and Z2 as indicated. The compounds themselves are shown for Table 3C.
• 1. […] Key Aspects of Method • 1. […] Results

[2] = molecular target: human ghrelin receptor (hGHS-R1a) (Homo sapiens, UniProt Q92847); test: cell-based
Source text: B. Aequorin Functional Assay (Ghrelin Receptor)
This cell line is typically constructed by transfection of the human ghrelin receptor into CHO-K1 cells co-expressing Gα16 and the mitochondrially targeted Aequorin (Ref #ES-WT-A5). • 1. […] Assay buffer: DMEM (Dulbecco's Modified Eagles Medium) containing 0.1% BSA (bovine serum albumin; pH 7.0). • 3. Coelenterazine (Molecular Probes, Leiden, The Netherlands). Final test concentrations (N=8) for compounds of the invention: 10, 1, 0.3, 0.1, 0.03, 0.01, 0.003, 0.001 μM. Compound Handling
Assay plates were then prepared by appropriate dilution in DMEM medium containing 0.1% BSA. Under these conditions, the maximal final DMSO concentration in the assay was <0.6%.
AequoScreen™ cells were collected from culture plates with Ca^2+ and Mg^2+-free phosphate buffered saline (PBS) supplemented with 5 mM EDTA, pelleted for 2 min at 1000×g, re-suspended in DMEM—Ham's F12 containing 0.1% BSA at a density of 5×10^6 cells/mL, and incubated O/N at rt in the presence of 5 μM coelenterazinc. After loading, cells were diluted with assay buffer to a concentration of 5×10^5 cells/mL.
For agonist testing, 50 μL of the cell suspension was mixed with 50 μL of the appropriate concentration of test compound or ghrelin (reference agonist) in 96-well plates (duplicate samples). Ghrelin (reference agonist) was tested at several concentrations concurrently with the test compounds in order to validate the experiment. The emission of light resulting from receptor activation in response to ghrelin or test compounds was recorded using the Hamamatsu FDSS 6000 reader (Hamamatsu Photonics K.K., Japan).
Analysis and Expression of Results
Results were expressed as Relative Light Units (RLU). […] EC50, Hill slope and % Emax values are reported.
Key Aspects of Method • 1. Assay performed on CHO-K1 cells expressing the transfected, cloned human ghrelin receptor (hGHS-R1a) and Gα16. • 2. Suspended cells incubated O/N with coelenterazine. • 3. Stimulation of hGHS-R1a activates Gα16, causing intercellular Ca2+ release which ultimately leads to the oxidation of coelenterazine and the emission of a quantitative luminescent signal. • 4. Ghrelin was used as the positive control. • 5.

[3] = test system: gastric emptying in fasted rats; test: Gastric emptying in fasted rats (phenol red methylcellulose meal); type: in vivo, rat (Wistar); details: i.v. immediately after meal, 15 min
Procedure: To examine the effects of compounds of the invention in a model for gastroparesis, compounds were evaluated for possible effects on gastric emptying in fasted rats.
GHRP-6 and test samples were dissolved in vehicle of 9% HPBCD/0.9% NaCl. Immediately following oral administration of methylcellulose (2%) containing phenol red (0.05%) (2 mL/rat), test substances or vehicle (9% HPBCD/0.9% NaCl) were each administered intravenously (i.v.) at a dosing volume of 5 mL/kg.
Male Wistar rats were provided by LASCO (A Charles River Licensee Corporation, Taiwan). Space allocation for 6 animals was 45×23×15 cm. Animals were housed in APEC® cages and maintained in a controlled temperature (22° C.-24° C.) and humidity (60%-80%) environment with 12 h light, 12 h dark cycles for at least one week in the laboratory prior to being used. Free access to standard lab chow for rats (Lab Diet, Rodent Diet, PMI Nutrition International, USA) and tap water was granted. All aspects of this work including housing, experimentation and disposal of animals were performed in general accordance with the Guide for the Care and Use of Laboratory Animals (National Academy Press, Washington, D.C., 1996).
Test substances were each administered intravenously to a group of 5 O/N-fasted Wistar derived male rats weighing 200±20 g immediately after methylcellulose (2%) containing phenol red (0.05%) was administered orally at 2 mL/animal. […] Following protein precipitation by 20% trichloroacetic acid (0.5 mL) and re-alkalization of the supernatant with 0.1 N NaOH, total phenol red remaining in the stomach was determined by a colorimetric method at 560 nm. A 30 percent or more (≧30%) increase in gastric emptying, detected as the decrease in phenol red concentration in the stomach relative to the vehicle control group, is considered significant.
• 1. […] Total phenol red remaining in the stomach was quantified by a colorimetric method at 560 nm. • 5. A >30% increase in gastric emptying, detected based on the phenol red concentration in comparison to the control group, is considered significant. […]

[4] = Table 4, binding at human ghrelin receptor, TFA salts unless otherwise noted, read-out: Ki
[5] = [125I]-ghrelin displacement, hGHS-R1a HEK-293 membranes, read-out: Binding Activity at the Human Ghrelin Receptor (Ki)
[6] = Table 3B, binding at human ghrelin receptor, [125I]-ghrelin displacement, read-out: Ki
[7] = Table 3D, binding at human ghrelin receptor, [125I]-ghrelin displacement, read-out: Ki

T1 sequence (Q92847 whole entry): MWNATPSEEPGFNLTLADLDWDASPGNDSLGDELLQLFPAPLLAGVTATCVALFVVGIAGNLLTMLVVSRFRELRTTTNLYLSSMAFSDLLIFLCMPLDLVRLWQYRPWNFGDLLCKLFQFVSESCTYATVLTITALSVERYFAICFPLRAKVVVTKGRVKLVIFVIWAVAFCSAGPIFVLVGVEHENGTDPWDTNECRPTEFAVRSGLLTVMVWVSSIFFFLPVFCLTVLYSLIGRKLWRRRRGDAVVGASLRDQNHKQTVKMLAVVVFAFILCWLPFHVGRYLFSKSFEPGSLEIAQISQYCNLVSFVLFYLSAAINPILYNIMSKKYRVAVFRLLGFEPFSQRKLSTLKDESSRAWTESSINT
Sequence of human ghrelin receptor (hGHS-R1a) (Q92847 whole entry): as above

Row | SMILES | Ki [1, 4] | EC50 [2] | Ki [1, 6] | further results
1 | CCC(C)C1NCCOc2ccc(C(=O)O)cc2CCCNC(=O)C(Cc2ccccc2)NC(=O)C(C)N(C)C1=O (centres unmarked) [compound 197] | 100 to 1000 nM | > 1000 nM |  | Ki [1, 5]: 100 to 10000 nM
2 | CCC(C)C1NCCc2ccccc2CCCNC(=O)C(Cc2ccccc2)NC(=O)C(C)N(C)C1=O (centres unmarked) [compound 214] | 100 to 1000 nM | 100 to 1000 nM |  | Ki [1, 5]: 100 to 10000 nM
3 | CC1C(=O)NC(Cc2c(F)c(F)c(F)c(F)c2F)C(=O)NCCCc2ccccc2OCCNC(C2CC2)C(=O)N1C (centres unmarked) [compound 318] | 0.1 to 10 nM | 1 to 100 nM | 0.1 to 10 nM | 
4 | CC1C(=O)NC(Cc2ccc(F)cc2)C(=O)NCC#Cc2ccccc2OCCNC(C2CC2)C(=O)N1C (centres unmarked) [compound 354] | 10 to 100 nM | 1 to 100 nM | < 100 nM | 
5 | CC1C(=O)NC(Cc2ccc(F)cc2)C(=O)NCCCc2cc(NS(C)(=O)=O)ccc2OCCNC(C2CC2)C(=O)N1C (centres unmarked) [compound 374] | 10 to 100 nM | 1 to 100 nM | < 100 nM | 
6 | CCC(C)C1NCCOc2ccc(F)cc2CCCNC(=O)C(Cc2cccc(Cl)c2)NC(=O)C2(CCCC2)NC1=O (centres unmarked) [compound 382] | 10 to 100 nM | 100 to 1000 nM | < 100 nM | 
7 | CCC(C)C1NCCOc2ccccc2C2CC2CNC(=O)C(Cc2cccc(Cl)c2)NC(=O)C2(CCCC2)NC1=O (centres unmarked) [compound 387] |  |  | 100 to 10000 nM | 
8 | CCC(C)C1NCCOc2ccccc2C2CC2CNC(=O)C(Cc2cccc(Cl)c2)NC(=O)C2(CCCC2)NC1=O (centres unmarked) [compound 388] | 0.1 to 10 nM | 1 to 100 nM | 0.1 to 10 nM | 
9 | CCC(C)C1NCCCNCCNC(=O)C(Cc2cccc(Cl)c2)NC(=O)C2(CCCC2)NC1=O (centres unmarked) [compound 390] |  |  | 100 to 10000 nM | 
10 | CCC(C)C1NCCOc2ccccc2CC(C)CNC(=O)C(Cc2cccc(Cl)c2)NC(=O)C2(CCCC2)NC1=O (centres unmarked) [compound 392] |  |  | < 100 nM | 
11 | CCC(C)C1NCCOCCOCCNC(=O)C(Cc2cccc(Cl)c2)NC(=O)C2(CCCC2)NC1=O (centres unmarked) [compound 393] |  |  | 100 to 10000 nM | 
12 | CC1COc2ccccc2CCCNC(=O)C(Cc2ccc(F)cc2)NC(=O)C(C)N(C)C(=O)C(C2CC2)N1 (centres unmarked) [compound 394] | 0.1 to 10 nM | 100 to 1000 nM | 0.1 to 10 nM | 
13 | CC1C(=O)NC(Cc2ccc(F)cc2)C(=O)NCCCCCOCCNC(C2CC2)C(=O)N1C (centres unmarked) [compound 398] |  |  | 100 to 10000 nM | 
14 | CC1C(=O)NC(Cc2ccc(F)cc2)C(=O)NCC=Cc2ccccc2OCCNC(C2CC2)C(=O)N1C (centres unmarked) [compound 400] |  |  | < 100 nM | 
15 | CC1CNC(C2CC2)C(=O)N(C)C(C)C(=O)NC(Cc2ccccc2)C(=O)NCCCc2ccc(F)cc2O1 (centres unmarked) [compound 435] |  |  |  | Ki [1, 7]: 10 to 100 nM
16 | CC(C)CC1NCC(C)Oc2ccccc2CCCNC(=O)C(Cc2cccc(Cl)c2)NC(=O)C2(CCCC2)NC1=O (centres unmarked) [compound 438] |  |  |  | Ki [1, 7]: 1000 to 10000 nM
17 | CCC(C)C1NCCOc2ccccc2CCCNC(=O)C(Cc2ccc(F)cc2)NC(=O)C(COCc2ccccc2)N(C)C1=O (centres unmarked) [compound 440] |  |  |  | Ki [1, 7]: 100 to 10000 nM
18 | CCC(C)C1NCCCCCNC(=O)C(Cc2cccc(Cl)c2)NC(=O)C2(CCCC2)NC1=O (centres unmarked) [compound 447] |  |  |  | Ki [1, 7]: 1000 to 10000 nM
19 | CCN(CC)CCNC(=O)c1cc(Cl)c(N)cc1OC [metoclopramide, Metoclopramide, reference compound] |  |  |  | gastric emptying of a solid meal in naïve rat [3]: significant gastric emptying
